“And” between values parts separate entries of the source, which are not always exact repeats. Identical values can stand only once.
Tests used:
[1] = molecular target: T1, CYP 2C9 (Homo sapiens, UniProt P11712); experiment: Extracellular Cytochrome P450 inhibition, 2C9; type: in vitro ADME; details: diclofenac 4′-hydroxylation
T1 construct: from tissue

[2] = mouse, in vivo, po, 250 mg/kg/day
[3] = molecular target: CYP 1A2 (Homo sapiens, UniProt P05177); experiment: Extracellular Cytochrome P450 inhibition, 1A2
Sequence of CYP 1A2 (P05177 whole entry): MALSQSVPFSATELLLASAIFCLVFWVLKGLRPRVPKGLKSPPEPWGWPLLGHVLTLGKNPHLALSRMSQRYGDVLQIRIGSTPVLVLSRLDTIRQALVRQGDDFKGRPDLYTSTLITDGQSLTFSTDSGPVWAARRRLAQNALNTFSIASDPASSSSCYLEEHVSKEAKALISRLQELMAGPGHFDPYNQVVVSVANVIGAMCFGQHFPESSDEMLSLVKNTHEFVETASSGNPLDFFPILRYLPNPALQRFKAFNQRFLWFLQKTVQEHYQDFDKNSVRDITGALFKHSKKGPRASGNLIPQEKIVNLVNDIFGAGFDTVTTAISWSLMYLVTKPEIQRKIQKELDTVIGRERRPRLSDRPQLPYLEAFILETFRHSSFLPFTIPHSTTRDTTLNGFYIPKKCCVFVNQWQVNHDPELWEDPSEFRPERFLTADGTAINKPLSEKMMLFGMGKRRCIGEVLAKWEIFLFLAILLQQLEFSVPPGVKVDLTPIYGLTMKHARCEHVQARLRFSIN
Method: Aliquots of this mixture to (89 μL) were delivered to each well of a 96-well polypropylene plate which contained an aliquot of inhibitor (1 μL). Final solvent concentrations were 1% (v/v) or less. Incubations were commenced with the addition of 10 μL β-NADPH (10 mM stock) to a final volume of 100 μL. […] Samples were centrifuged, and supernatant was transferred for LC-MS analysis.

[4] = molecular target: T2, CYP 2D6 (Homo sapiens, UniProt P10635); experiment: Extracellular Cytochrome P450 inhibition, 2D6; type: in vitro ADME; details: dextromethorphan O-demethylation
T2 construct: microsomes were incubated test substrates, which were known to be metabolized by CYP enzymes, with or without Compound 2; from tissue
T2 sequence (P10635 whole entry): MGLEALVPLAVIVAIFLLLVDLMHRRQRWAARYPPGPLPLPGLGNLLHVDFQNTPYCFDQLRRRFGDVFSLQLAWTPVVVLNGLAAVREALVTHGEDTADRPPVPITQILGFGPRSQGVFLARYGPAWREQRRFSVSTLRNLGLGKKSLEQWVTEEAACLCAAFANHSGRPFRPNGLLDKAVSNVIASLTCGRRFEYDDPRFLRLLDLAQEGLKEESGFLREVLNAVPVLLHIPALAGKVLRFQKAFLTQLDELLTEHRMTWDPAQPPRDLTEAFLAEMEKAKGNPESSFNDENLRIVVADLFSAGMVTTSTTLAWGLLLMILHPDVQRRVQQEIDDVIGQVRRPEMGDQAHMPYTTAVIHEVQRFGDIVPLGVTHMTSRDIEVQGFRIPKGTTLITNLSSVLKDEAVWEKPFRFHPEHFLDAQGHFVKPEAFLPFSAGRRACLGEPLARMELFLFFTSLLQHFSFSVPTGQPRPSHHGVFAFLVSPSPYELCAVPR

[5] = Thermodynamic Aqueous Solubility by HPLC; type: physicochemical; details: water, 25° C., 24 hours
Method: Aqueous solubility was determined by suspending sufficient compound in water to give a maximum final concentration of ≧10 mg·ml^−1 of the parent free-form of the compound. The suspension was equilibrated at 25° C. for 24 hours then the pH was measured. The suspension was then filtered through a glass fibre C filter into a 96 well plate. The filtrate was then diluted by a factor of 101. Quantitation was by HPLC with reference to a standard solution of approximately 0.1 mg·ml^−1 in DMSO. Different volumes of the standard, diluted and undiluted sample solutions were injected. The solubility was calculated using the peak areas determined by integration of the peak found at the same retention time as the principal peak in the standard injection.
Analysis was performed on an Agilent HP1100 series system equipped with a diode array detector and using ChemStation software vB.02.01-SR1.

[6] = tested on: CYP3A4; experiment: Cellular Cytochrome P450 induction, CYP3A4; details: tested at 10 μM, cryopreserved human hepatocytes
[7] = molecular target: T3, CYP 2C19 (Homo sapiens, UniProt P33261); experiment: Extracellular Cytochrome P450 inhibition, 2C19; type: in vitro ADME; details: mephenytoin 4′-hydroxylation
T3 construct: from tissue
T3 sequence (P33261 whole entry): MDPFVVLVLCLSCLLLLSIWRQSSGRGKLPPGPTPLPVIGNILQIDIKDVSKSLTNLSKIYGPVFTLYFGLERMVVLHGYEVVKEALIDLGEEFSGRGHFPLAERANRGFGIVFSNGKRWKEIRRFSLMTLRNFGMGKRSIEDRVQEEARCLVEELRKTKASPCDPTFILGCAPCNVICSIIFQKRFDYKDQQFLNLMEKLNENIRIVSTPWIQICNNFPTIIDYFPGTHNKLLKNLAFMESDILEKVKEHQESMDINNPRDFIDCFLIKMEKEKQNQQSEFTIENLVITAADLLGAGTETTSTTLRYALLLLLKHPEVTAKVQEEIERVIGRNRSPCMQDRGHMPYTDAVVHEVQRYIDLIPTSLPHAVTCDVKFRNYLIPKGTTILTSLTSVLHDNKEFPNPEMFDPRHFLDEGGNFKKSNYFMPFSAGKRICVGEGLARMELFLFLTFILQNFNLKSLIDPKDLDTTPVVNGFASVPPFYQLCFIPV
Text: Final solvent concentrations were 1% (v/v) or less.

[8] = Liquid formulations (oral solutions/suspensions); type: physicochemical
Method: Values of pH reported were estimated based on pH indicating strips. […] Accordingly, provided in certain embodiments herein were formulations having a pH above about 9, above about 10 or of about 10. In certain embodiments, the formulation was buffered at a pH of about 10. All formulations prepared were sonicated for about 10 minutes.

[9] = molecular target: T4, CYP3A4 (Homo sapiens, UniProt P08684); experiment: Extracellular Cytochrome P450 inhibition, 3A4; type: in vitro ADME
T4 construct: from tissue
T4 sequence (P08684 whole entry): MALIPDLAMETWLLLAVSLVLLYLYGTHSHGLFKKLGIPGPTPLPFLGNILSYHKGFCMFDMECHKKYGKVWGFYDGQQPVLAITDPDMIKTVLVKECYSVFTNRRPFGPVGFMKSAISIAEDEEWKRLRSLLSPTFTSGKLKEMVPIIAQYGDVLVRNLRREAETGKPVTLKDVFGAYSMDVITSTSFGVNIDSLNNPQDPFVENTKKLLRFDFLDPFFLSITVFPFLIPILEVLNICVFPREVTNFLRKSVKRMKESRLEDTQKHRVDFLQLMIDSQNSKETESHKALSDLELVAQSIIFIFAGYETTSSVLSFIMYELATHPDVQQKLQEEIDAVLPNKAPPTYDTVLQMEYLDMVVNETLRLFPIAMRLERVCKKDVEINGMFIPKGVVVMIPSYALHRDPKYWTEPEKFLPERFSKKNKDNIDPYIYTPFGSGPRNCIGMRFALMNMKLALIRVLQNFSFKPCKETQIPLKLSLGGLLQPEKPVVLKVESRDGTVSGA

[10] = molecular target: T5, human FLAP (Homo sapiens, UniProt P20292); experiment: FLAP binding assay; details: individual tests 1-8; read-out: IC50 (nM), Inhibition of FLAP Radioligand Binding
T5 sequence (P20292 1-161): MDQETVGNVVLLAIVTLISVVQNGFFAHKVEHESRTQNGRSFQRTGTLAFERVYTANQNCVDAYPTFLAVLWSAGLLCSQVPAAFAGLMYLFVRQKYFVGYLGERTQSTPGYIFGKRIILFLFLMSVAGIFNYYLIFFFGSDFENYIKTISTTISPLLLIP

[11] = tested on: production of LTB4 after ionophore stimulation in washed human leukocytes; experiment: LTB4 inhibition in washed human leukocytes; type: cell-based; details: Leukocyte, mean of 4 tests
[12] = tested on: LTB4 in Rat Whole Blood; experiment: Rat whole blood LTB4 inhibition assay; type: cell-based; details: mean of 5 tests
[13] = tested on: urinary LTE4 production; experiment: Phase I study, urinary LTE4; type: in vivo, human; details: for Emax: Homo sapiens
Text: Study Design: Single center, double-blind, randomized, placebo-controlled, single ascending dose followed by multiple ascending dose study.
Sample Size: (1) Single Dose Phase: eight (8) subjects (6 active, 2 placebo) per dose level; up to 5 dose levels are planned (a total of 40 subjects if all 5 dose levels are completed); and (2) Multiple Dose Phase: eight (8) subjects (6 active, 2 placebo) per dose level; up to 4 dose levels are planned (a total of 32 subjects if all 4 dose levels are completed).
Formulations: Compound 2 was supplied as an oral powder for reconstitution. Placebo solution matched. […] The placebo differed only in the absence of the active.
The following dosing cohorts were used:
Routes of Administration: All doses were administered orally with approximately 100 mL of water rinse. Subjects were fasted for at least 8 hours prior to dosing and for 2 hours after dosing. For BID dosing in the Multiple Dose Phase, when applicable, subjects were fasted for at least 2 hours prior to the second daily dose.
Plasma concentrations of Compound 1 were determined using a validated LC/MS method. Whole blood ionophore-stimulated leukotriene LTB4 and urinary LTE4 production were assayed by ELISA and mass spectrometry, respectively.
Analysis of Samples: Concentrations of Compound 1 was determined in plasma samples collected from subjects. Similarly, concentrations of LTB4 in plasma and urinary LTE4 were determined in blood and urine samples collected.

[14] = tested on: CYP2C9; experiment: Cellular Cytochrome P450 induction, CYP2C9; details: tested at 10 μM, cryopreserved human hepatocytes

T1 sequence (P11712 whole entry): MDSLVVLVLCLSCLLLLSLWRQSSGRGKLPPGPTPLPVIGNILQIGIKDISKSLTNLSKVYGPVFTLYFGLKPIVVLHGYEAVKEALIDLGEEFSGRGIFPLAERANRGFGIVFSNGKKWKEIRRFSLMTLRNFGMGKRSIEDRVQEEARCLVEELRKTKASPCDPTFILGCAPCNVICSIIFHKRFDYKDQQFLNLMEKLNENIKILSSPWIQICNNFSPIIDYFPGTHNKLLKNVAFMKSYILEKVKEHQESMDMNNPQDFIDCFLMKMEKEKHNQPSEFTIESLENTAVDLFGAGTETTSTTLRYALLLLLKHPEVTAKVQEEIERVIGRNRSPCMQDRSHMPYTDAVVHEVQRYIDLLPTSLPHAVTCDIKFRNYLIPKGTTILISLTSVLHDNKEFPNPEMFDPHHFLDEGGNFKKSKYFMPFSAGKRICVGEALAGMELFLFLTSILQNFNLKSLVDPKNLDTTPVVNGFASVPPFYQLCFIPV

CCOc1ccc(-c2ccc(Cn3c(CC(C)(C)C(=O)[O-])c(SC(C)(C)C)c4cc(OCc5ccc(C)cn5)ccc43)cc2)cn1.[Na+] [Compound 2, sodium 3-[3-(tert-butylsulfanyl)-1-[4-(6-ethoxy-pyridin-3-yl)benzyl]-5-(5-methyl-pyridin-2-yl-methoxy)-1H-indol-2-yl]-2,2-dimethylpropionate]
IC50 [1]: > 50000 nM
necropsy, gross abnormalities [2]: no gross abnormalities
IC50 [3]: > 40000 nM
IC50 [4]: > 50000 nM
Concentration of filtrate (as mg/mL of free base) [5]: greater than 10 mg/mL
pH of unfiltered saturated solution [5]: above 9
induction of CYP3A4 [6]: No apparent induction
IC50 [7]: > 40000 nM
Results (liquid formulation) ([8]; 0.010M sodium carbonate buffer, 1% v/v Lutrol and 0.05% splenda, pH 10, ~10 mg/mL): Clear solution
Results (liquid formulation) ([8]; 0.010M sodium carbonate buffer, 2% v/v ethanol and 0.05% splenda, pH 10, 10 mg/mL): Clear solution
Results (liquid formulation) ([8]; 0.010M sodium carbonate buffer, 5% v/v Ethanol and 0.05% splenda, pH 10, ~10 mg/mL): Some undissolved
Results (liquid formulation) ([8]; 0.010M sodium carbonate buffer, 5% v/v Simple syrup, pH 10, 10 mg/mL): Some undissolved
Results (liquid formulation) ([8]; 0.010M sodium carbonate buffer, pH 10, 10 mg/mL): Clear solution
Results (liquid formulation) ([8]; Vehicle 0.5% Methylcellulose, 3.33 mg/mL): Suspension
IC50 ([9]; midazolam 1-hydroxylation): > 50000 nM
IC50 ([9]; testosterone 6β-hydroxylation): > 40000 nM
IC50 [10]: 4.9 nM and 4.1 nM and 1.8 nM
IC50 [11]: 0.44 nM
IC50 [12]: 239 nM
IC90 [12]: 1630 nM
Emax ([13]; 24 h, Multiple dose part, Day 1, 10 mg): 54.1%
Emax ([13]; 24 h, Multiple dose part, Day 1, 50 mg): 94%
Emax ([13]; 24 h, Multiple dose part, Day 1, 150 mg): 98.3%
Emax ([13]; 24 h, Multiple dose part, Day 1, 450 mg): 85.7%
Emax ([13]; 24 h, Single dose part, Day 1, 50 mg): 86.3%
Emax ([13]; 24 h, Single dose part, Day 1, 150 mg): 97.4%
Emax ([13]; 24 h, Single dose part, Day 1, 300 mg): 97%
Emax ([13]; 24 h, Single dose part, Day 1, 600 mg): 96%
Emax ([13]; 24 h, Single dose part, Day 1, 1000 mg): 96.6%
Emax ([13]; 264 h, Multiple dose part, Day 11, 10 mg): 88.6%
Emax ([13]; 264 h, Multiple dose part, Day 11, 50 mg): 97.7%
Emax ([13]; 264 h, Multiple dose part, Day 11, 150 mg): 97.5%
Emax ([13]; 264 h, Multiple dose part, Day 11, 450 mg): 98.4%
Tmax (h), LTE4 ([13]; Multiple dose part, Day 1, 10 mg): 24.00 h
Tmax (h), LTE4 ([13]; Multiple dose part, Day 1, 50 mg): 16.00 h
Tmax (h), LTE4 ([13]; Multiple dose part, Day 1, 150 mg): 24.00 h
Tmax (h), LTE4 ([13]; Multiple dose part, Day 1, 450 mg): 24.00 h
Tmax (h), LTE4 ([13]; Multiple dose part, Day 11, 10 mg): 12.00 h
Tmax (h), LTE4 ([13]; Multiple dose part, Day 11, 50 mg): 9.00 h
Tmax (h), LTE4 ([13]; Multiple dose part, Day 11, 150 mg): 24.00 h
Tmax (h), LTE4 ([13]; Multiple dose part, Day 11, 450 mg): 12.00 h
Tmax (h), LTE4 ([13]; Single dose part, Day 1, 50 mg): 16.00 h
Tmax (h), LTE4 ([13]; Single dose part, Day 1, 150 mg): 16.00 h
Tmax (h), LTE4 ([13]; Single dose part, Day 1, 300 mg): 24.00 h
Tmax (h), LTE4 ([13]; Single dose part, Day 1, 600 mg): 24.00 h
Tmax (h), LTE4 ([13]; Single dose part, Day 1, 1000 mg): 16.00 h
induction of CYP2C9 [14]: No apparent induction

— patent US20110160249A1, “5-LIPOXYGENASE-ACTIVATING PROTEIN INHIBITOR” (priority 2008, published 2011)
